According to ChEMBL document CHEMBL1201862, “PubChem BioAssay data set” (2004):
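96-well plates; 48 h exposure; 5 concentrations. Endpoints by linear interpolation between flanking doses. Not reached: highest tested concentration assigned. GI50 is the concentration that inhibits growth by half.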 The source made the active and inactive calls. Cut-off read from the data, not from the text of the source: active = GI50 up to about 1.1 µM and inactive = higher.

Columns and labels:
Assay in all cases: NCI-60 cell line screen, 48 h
NCI-H23 = test system: NCI-H23
NCI-H226 = test system: NCI-H226
OVCAR-3 = test system: OVCAR-3
CAKI-1 = test system: CAKI-1
ACHN = test system: ACHN
CCRF-CEM = test system: CCRF-CEM
RPMI-8226 = test system: RPMI-8226
HCC 2998 = test system: HCC 2998
Malme-3M = test system: Malme-3M
SK-MEL-28 = test system: SK-MEL-28
SN12C = test system: SN12C
SF-539 = test system: SF-539
SF-295 = test system: SF-295
HT-29 = test system: HT-29
SNB-19 = test system: SNB-19
SK-MEL-5 = test system: SK-MEL-5
NCI-H522 = test system: NCI-H522

Measured: GI50

O=C1c2ccccc2C(=O)c2c(O)c(NCCCNCCO)cc(O)c21
inactive: NCI-H23 9.18 µM | NCI-H226 5.61 µM | OVCAR-3 12.1 µM | CAKI-1 10.2 µM | ACHN 3.82 µM | CCRF-CEM 2.47 µM | RPMI-8226 7.59 µM | HCC 2998 3.06 µM | Malme-3M 17.1 µM | SK-MEL-28 16.2 µM | SN12C 10.5 µM | SF-539 9.38 µM | SF-295 10.7 µM | HT-29 4.16 µM

COc1ccc(C(=O)Nc2ccccc2)cc1[N+](=O)[O-]
inactive: NCI-H23 > 100 µM | NCI-H226 > 100 µM | OVCAR-3 58.9 µM | CAKI-1 > 100 µM | SNB-19 > 100 µM | SK-MEL-5 31.5 µM | CCRF-CEM > 100 µM | RPMI-8226 > 100 µM | NCI-H522 87.9 µM | Malme-3M > 100 µM | SK-MEL-28 > 100 µM | SN12C > 100 µM | SF-539 > 100 µM | SF-295 > 100 µM | HT-29 70.3 µM

Cc1cc(C)nc(NS(=O)(=O)c2ccc(NC(=O)c3cccn4c(=O)c5ccccc5nc34)cc2)n1
inactive: NCI-H23 35.3 µM | NCI-H226 37.6 µM | SNB-19 62.5 µM | ACHN > 100 µM | SK-MEL-5 37.9 µM | CCRF-CEM 27.5 µM | NCI-H522 21.5 µM | HCC 2998 > 100 µM | SK-MEL-28 38.5 µM | SN12C 53.2 µM | SF-539 38.5 µM | SF-295 > 100 µM | HT-29 40.2 µM

Cc1cc(O)cc2c1O[C@@]1(C)CCC3[C@@]4(C)CC[C@H](O)C(C)(C)C4CC[C@@]3(C)[C@H]1C2 (stereo not given in full)
inactive: NCI-H23 10 µM | NCI-H226 10.7 µM | OVCAR-3 6.31 µM | CAKI-1 6.81 µM | ACHN 5.24 µM | SK-MEL-5 5.61 µM | CCRF-CEM 2.55 µM | RPMI-8226 2.18 µM | NCI-H522 6.52 µM | Malme-3M 9.06 µM | SK-MEL-28 6.82 µM | SN12C 11.6 µM | SF-539 2.23 µM | SF-295 2.35 µM | HT-29 13.3 µM

CC(=O)Nc1ccc(-c2nnc(SCC(=O)Nc3cccc(Cl)c3)o2)cc1
inactive: NCI-H23 9.79 µM | NCI-H226 17.7 µM | OVCAR-3 7.11 µM | CAKI-1 19.1 µM | SNB-19 22 µM | ACHN 15.2 µM | SK-MEL-5 13.9 µM | CCRF-CEM 6.18 µM | RPMI-8226 15 µM | NCI-H522 5.86 µM | HCC 2998 18.6 µM | Malme-3M 12.4 µM | SK-MEL-28 17.9 µM | SN12C 16 µM | SF-539 20.1 µM | SF-295 18.8 µM | HT-29 17.2 µM

CC(NS(=O)(=O)c1ccc([N+](=O)[O-])cc1)C(=O)O (stereo not given)
inactive: NCI-H23 > 100 µM | NCI-H226 > 100 µM | OVCAR-3 > 100 µM | CAKI-1 > 100 µM | SNB-19 > 100 µM | ACHN > 100 µM | SK-MEL-5 > 100 µM | CCRF-CEM > 100 µM | RPMI-8226 > 100 µM | NCI-H522 > 100 µM | HCC 2998 > 100 µM | Malme-3M > 100 µM | SK-MEL-28 > 100 µM | SN12C > 100 µM | SF-539 > 100 µM | SF-295 > 100 µM | HT-29 > 100 µM

COC(=O)CC1C(=O)OCc2c1cc1n(c2=O)Cc2c-1nc1ccccc1c2OC (stereo not given)
inactive: NCI-H23 17.3 µM | CAKI-1 4.51 µM | SNB-19 37 µM | ACHN 23.6 µM | SK-MEL-5 61.1 µM | CCRF-CEM 6 µM | RPMI-8226 > 100 µM | NCI-H522 25.8 µM | HCC 2998 > 100 µM | Malme-3M > 100 µM | SK-MEL-28 > 100 µM | SN12C 41.4 µM | HT-29 > 100 µM

O=C1[C@@H]2C3C=CC([C@H]4C(=O)N(CO)C(=O)[C@@H]34)[C@@H]2C(=O)N1CO
inactive: NCI-H23 > 92.9 µM | NCI-H226 > 100 µM | OVCAR-3 > 100 µM | CAKI-1 > 100 µM | SNB-19 > 100 µM | ACHN > 50.7 µM | SK-MEL-5 59 µM | CCRF-CEM 25.2 µM | RPMI-8226 19.4 µM | NCI-H522 34.8 µM | HCC 2998 > 70 µM | Malme-3M > 100 µM | SK-MEL-28 > 63.5 µM | SN12C > 57.5 µM | SF-539 47.3 µM | SF-295 > 100 µM | HT-29 62.8 µM

O=C(CC1(O)C(=O)Nc2ccccc21)c1ccncc1 (stereo not given)
inactive: NCI-H23 > 100 µM | NCI-H226 > 100 µM | CAKI-1 > 100 µM | SNB-19 > 100 µM | ACHN > 100 µM | SK-MEL-5 > 100 µM | CCRF-CEM > 100 µM | RPMI-8226 > 100 µM | NCI-H522 > 100 µM | HCC 2998 > 100 µM | SK-MEL-28 > 100 µM | SN12C > 100 µM | SF-539 > 100 µM | SF-295 > 100 µM | HT-29 > 100 µM

COC(=O)CC(=O)OC
inactive: NCI-H23 > 100 µM | OVCAR-3 > 100 µM | CAKI-1 > 100 µM | SNB-19 > 100 µM | ACHN > 100 µM | SK-MEL-5 > 100 µM | CCRF-CEM > 100 µM | RPMI-8226 > 100 µM | HCC 2998 > 100 µM | Malme-3M > 100 µM | SN12C > 100 µM | SF-539 > 100 µM | SF-295 > 100 µM | HT-29 > 100 µM

O=C1NC2C3CC(OCc4ccccc4)(OCc4ccccc4)C2OC3O1 (stereo not given)
inactive: NCI-H23 > 50 µM | NCI-H226 > 50 µM | OVCAR-3 > 50 µM | CAKI-1 > 50 µM | SK-MEL-5 > 50 µM | CCRF-CEM > 50 µM | RPMI-8226 > 50 µM | HCC 2998 > 50 µM | Malme-3M > 50 µM | SK-MEL-28 > 50 µM | SN12C > 50 µM | SF-539 > 50 µM | SF-295 > 50 µM | HT-29 > 50 µM

CCOC(=O)c1[nH]c2c(OC)n[n+]([O-])cc2c1[N+](=O)[O-]
inactive: NCI-H23 10 µM | NCI-H226 26.9 µM | OVCAR-3 20.6 µM | SNB-19 25.6 µM | ACHN 17.3 µM | CCRF-CEM 26.1 µM | RPMI-8226 18.1 µM | NCI-H522 19.3 µM | HCC 2998 10 µM | Malme-3M 18.3 µM | SK-MEL-28 15.7 µM | SN12C 20.4 µM | SF-539 27.9 µM | SF-295 37.2 µM | HT-29 15.9 µM

Cc1c2c(cc[n+]1C)O[B-](c1ccccc1)(c1ccccc1)O2
inactive: NCI-H23 > 100 µM | NCI-H226 48.6 µM | OVCAR-3 43.7 µM | CAKI-1 13.5 µM | ACHN 35.9 µM | SK-MEL-5 83.4 µM | CCRF-CEM 35.9 µM | RPMI-8226 40.2 µM | NCI-H522 36.8 µM | HCC 2998 27.8 µM | Malme-3M 65.5 µM | SN12C 51.8 µM | SF-539 95.9 µM | SF-295 53.6 µM | HT-29 > 100 µM

Cc1ccc(C2COc3cc(O)c(O)cc3C2)cc1 (stereo not given)
inactive: NCI-H23 23.4 µM | NCI-H226 45.2 µM | OVCAR-3 13.8 µM | CAKI-1 15.9 µM | SNB-19 39.4 µM | SK-MEL-5 18.9 µM | CCRF-CEM 1.82 µM | RPMI-8226 7.11 µM | NCI-H522 4.06 µM | HCC 2998 35.1 µM | Malme-3M 18.7 µM | SK-MEL-28 13.1 µM | SN12C 20.7 µM | SF-539 22.4 µM | SF-295 32.6 µM | HT-29 29.7 µM

CN(C)CC(C)(C)/C(=N\Nc1ccccc1)c1ccccc1
inactive: NCI-H23 > 100 µM | OVCAR-3 54.8 µM | SNB-19 > 100 µM | ACHN 20.1 µM | SK-MEL-5 70 µM | CCRF-CEM 29.7 µM | RPMI-8226 10.3 µM | NCI-H522 44.3 µM | Malme-3M 46.8 µM | SK-MEL-28 39.9 µM | SN12C 48.8 µM | SF-539 24.6 µM | SF-295 21.1 µM | HT-29 35.9 µM

CCCN(CCC)C(=O)c1c([N+](=O)[O-])cc(C(F)(F)F)cc1[N+](=O)[O-]
inactive: NCI-H23 25.4 µM | NCI-H226 19.3 µM | OVCAR-3 10.7 µM | CAKI-1 60.7 µM | SNB-19 68.4 µM | ACHN 65.9 µM | CCRF-CEM 62.4 µM | RPMI-8226 47.6 µM | NCI-H522 23.2 µM | SK-MEL-28 > 100 µM | SN12C 40.9 µM | SF-539 41.6 µM | SF-295 34.4 µM | HT-29 32.5 µM

O=C1[C@@H]2C(c3cccc([N+](=O)[O-])c3)=NO[C@@H]2C(=O)N1c1ccc(Cc2ccc(N3C(=O)[C@H]4C(c5cccc([N+](=O)[O-])c5)=NO[C@H]4C3=O)cc2)cc1
inactive: OVCAR-3 > 100 µM | CAKI-1 > 100 µM | ACHN > 100 µM | CCRF-CEM > 100 µM | RPMI-8226 > 100 µM | NCI-H522 > 100 µM | Malme-3M > 100 µM | SK-MEL-28 > 100 µM | SN12C > 100 µM | SF-539 35.9 µM | HT-29 > 100 µM

CC1(C)C(=NNC(=O)C[N+](C)(C)C)C(C)(C)C1=NNC(=O)C[N+](C)(C)C
inactive: NCI-H23 > 100 µM | NCI-H226 > 100 µM | OVCAR-3 > 100 µM | CAKI-1 > 100 µM | SNB-19 > 100 µM | ACHN > 100 µM | SK-MEL-5 > 100 µM | CCRF-CEM > 100 µM | NCI-H522 82.4 µM | HCC 2998 > 100 µM | Malme-3M > 100 µM | SK-MEL-28 > 100 µM | SN12C > 100 µM | SF-539 > 100 µM | SF-295 > 100 µM | HT-29 > 100 µM
